According to publication PMC8658989, “Synthesis and Biological Studies on (KLAKLAK)2-NH2 Analog Containing Unnatural Amino Acid β-Ala and Conjugates with Second Pharmacophore” (Molecules, 2021):
Read-outs that look alike come from different tables or passages of the source. Non-standard residues stand in square brackets, D forms with d. Residues, ends and D or L forms follow the SMILES beside them. *: point of attachment. Acetyl(1,8-naphthalimido) = O=C1c2cccc3cccc(c23)C(=O)N1CC(=O)*; Caffeoyl = O=C(/C=C/c1ccc(O)c(O)c1)*; βAla = NCCC(=O)O

Tests used:
[1] = In vitro cytotoxicity, 3T3 NRU test; type: cell-based; settings: mouse, BALB/3T3 clone A31 mouse embryo cells, 24 h incubation, 15 to 2000 μM, read-out: IC50 of Mean ± SD Cytotoxicity BALB 3T3 (CC50)
Experimental: The newly synthesized compounds were studied for cytotoxicity assessment by an in vitro 3T3 NRU test. The cells were incubated with the test substances at a concentration of 15 to 2000 μM for 24 h at 37 °C, 5% CO2 and 95% humidity. The cytotoxicity expressed in % relative to the negative control was determined.
The cytotoxicity testing was performed as described by Borenfreund et al. and the latest modification of the validated BALB/3T3 clone A31 Neutral Red Uptake Assay (3T3 NRU test). BALB/3T3 clone A31 mouse embryo cells were grown as a monolayer in 75 cm^2 tissue culture flasks in high-glucose DMEM (4.5 g/L), supplemented with 10% FBS and antibiotics. Cultures were maintained at 37.5 °C in a humidified atmosphere under 5% CO2. Cells were plated at a density of 1 × 10^4 cells in 100 μL culture medium in each well of 96-well flat-bottomed microplates and allowed to adhere for 24 h before treatment with test compounds, dissolved in DMSO and further diluted in culture medium. A wide concentration range was applied (from 15 to 2000 μM), and the cells were incubated for an additional 24 h. After treatment with Neutral Red medium, washing and application of the ethanol/acetic acid solution (NR Desorb), the absorption was measured on a TECAN microplate reader at wavelength 540 nm. The data obtained are on average from three independent experiments ± SD, n = 6.

Escherichia coli K12 407 = experiment: Antimicrobial assay, agar/disc diffusion, E. coli; type: cell-based; settings: 6 μL of 20 μM solution on 6 mm paper disc, 24 h
Experimental: (§1) The microbial cultures were placed in a thin layer on sterile plates. On sterile paper discs, 6 μL of 20 μM solutions in distilled water of the test compounds was placed. Further, the discs were incorporated into a thin layer of sterile plates (Figure 3). The studies were triplicates for each concentration, and the diameters of the obtained zones represent the average value of the three results.
(§2) All newly synthesized derivatives of (KLAKLAK)2-NH2 at concentrations of 20 μM in distilled water were tested against model strains E. coli NBIMCC K12 407, B. subtilis NBIMCC 3562 and C. albicans NBIMCC 74. The strains were obtained from the National Bank for Industrial Microorganisms and Cell Cultures (NBIMCC, Sofia, Bulgaria). Exponential cultures (1 × 10^7 cfu/mL) of strains E. coli K12 407 were obtained in Luria-Bertani (LB, HiMedia, Mumbai, India); for B. subtilis 3562, an initial bacterial concentration of 1 × 10^6 cfu/mL was obtained in nutrient broth (NB, HiMedia, Mumbai, India); and for C. albicans 74, and initial bacterial concentration of 1 × 10^5 cfu/mL was obtained in yeast mold (YM) medium. Cultivation was performed in an ES-20/60 incubator shaker (Biosan, Riga, Latvia) at 30 °C for B. subtilis 3562 and at 37 °C for E. coli K12 407 and C. albicans 74 with shaking at 220 rpm for 24 h. The agar diffusion method was applied to determine the antimicrobial activity of the tested compounds. LB/NB/YM plates were inoculated by spreading 100 μL of each microbial culture on their surface, followed by incubation at 30/37 °C for penetration of suspension into the agar. After 30 min, sterile paper discs (6 mm in diameter) were soaked with the tested compounds in amounts of 6 µL and placed on the surface of agar Petri dishes. The plates were incubated at 30/37 °C for 24 h. Antimicrobial activity was assessed by measuring the diameter of the obtained inhibition zones. Sterile paper discs soaked with water were used as blank controls. Mean values were calculated by performing the experiments in triplicates.

Bacillus subtilis 3562 = experiment: Antimicrobial assay, agar/disc diffusion, B. subtilis; type: cell-based; settings: 6 μL of 20 μM solution on 6 mm paper disc, 24 h
Experimental: as §1, §2

Candida albicans 74 = experiment: Antimicrobial assay, agar/disc diffusion, C. albicans; type: cell-based; settings: 6 μL of 20 μM solution on 6 mm paper disc, 24 h
Experimental: as §1, §2

MCF-10A = experiment: Antiproliferative activity, MTT dye-reduction assay, MCF-10A; type: cell-based, human; settings: 72 h, read-out: IC50 of Mean ± SD Antiproliferative Activity MCF-10A
Experimental: (§3) The compounds were studied for antiproliferative activity by MTT dye-reduction assay. Cell cultures from different cell lines (MCF-10A, MCF-7 and MDA-MB-231) were incubated with the test substances at a concentration of 15 to 2000 μM for 72 h at 37 °C, 5% CO2 and 95% humidity. The antiproliferative activity expressed in % relative to the negative control was determined.
MCF-10A is a reliable model for normal human mammary epithelial cells, which serves as a control in experiments to determine antitumor activity.
(§4) The antiproliferative activity testing was performed on cell cultures from several human cell lines using the standard MTT dye-reduction assay, described by Mosmann. The assay is based on the metabolism of the tetrazolium salt 3-(4,5-dimethylthiazol-2-yl)-2,5-diphenyltetrazolium bromide (MTT) to insoluble formazan by mitochondrial reductases. The formazan concentration can be determined spectrophotometrically. The measured absorption is an indicator of cell viability and metabolic activity. The following cell lines were used in the experiments: mammary gland type A adenocarcinoma ER+, PR+ and HER2− (MCF-7); triple-negative breast cancer ER−, PR−, and HER2− (MDA-MB-231); and breast, nontumorigenic epithelial cell line (MCF-10A). The cell lines were routinely grown as monolayers in 75 cm^2 tissue culture flasks under standard conditions (described above). Cells were plated at a density of 1 × 10^3 cells in 100 µL in each well of 96-well flat-bottomed microplates and allowed to adhere for 24 h before treatment with test compounds. A concentration range from 15 to 2000 μM was applied for 72 h. Formazan absorption was registered using a microplate reader at λ = 540 nm. Antiproliferative activities were expressed as IC50 values (concentrations required for 50% inhibition of cell growth), calculated using nonlinear regression analysis (GraphPad Prism 4 Software, https://www.graphpad.com).

MCF-7 = experiment: Antiproliferative activity, MTT dye-reduction assay, MCF-7; type: cell-based, human; settings: for IC50: MTT, 72 h, read-out: IC50 of Mean ± SD Antiproliferative Activity MCF-7; for SI ± SD MCF-7 (selective index): SI = IC50 of MCF-10A/IC50 of MCF-7
Experimental: as §3, §4

MDA-MB-231 = experiment: Antiproliferative activity, MTT dye-reduction assay, MDA-MB-231; type: cell-based, human; settings: for IC50: MTT, 72 h, read-out: IC50 of Mean ± SD Antiproliferative Activity MDA-MB-231; for SI ± SD MDA-MB-231 (selective index): SI = IC50 of MCF-10A/IC50 of MDA-MB-231
Experimental: as §3, §4

[2] = Hydrolytic stability in model buffer solutions by HPLC; type: physicochemical; settings: 72 h, model buffer solutions pH 2, pH 7.4 and pH 9, HPLC
Experimental: HPLC profiles of all target compounds at three different pH values that mimic human pH in the stomach (pH 2), blood plasma (pH 7.4) and small intestine (pH 9) are presented in the Supplementary Materials.
The designed changes in the structures, i.e., C-terminal amide modification, as well as the introduction of a β-Ala moiety, lead to complete stability of the target compounds during the test period in all model conditions.
The obtained solution was made up to 1000.0 mL with dH2O; • (ii) Buffer with pH 7.4–2.38 g Na2HPO4, 0.19 g KH2PO4 and 8.0 g NaCl was dissolved in dH2O. The obtained solution was made up to 1000.0 mL with dH2O. • (iii) Buffer with pH 9.0–1000.0 mL of solution I was mixed with 420.0 mL of solution II. Solution I: 6.18 g of H3BO3 was dissolved in 0.1 mol/L KCl, and it was made up to 1000.0 mL with the same solvent; Solution II: 0.1 mol/L NaOH.

SMILES | CC50 at 24 h [1] | Inhibition zones size, Escherichia coli K12 407 (Escherichia coli K12 407) | Inhibition zones size, Bacillus subtilis 3562 (Bacillus subtilis 3562) | Inhibition zones size, Candida albicans 74 (Candida albicans 74) | melting point | IC50 (MCF-10A) | IC50 (MCF-7) | SI ± SD MCF-7 (selective index) (MCF-7) | IC50 (MDA-MB-231) | SI ± SD MDA-MB-231 (selective index) (MDA-MB-231) | Inhibition zones size, Candida albicans 74 (Candida albicans 74; listed as Si 5) | Hydrolytic stability [2] | SI ± SD MCF-7 (selective index) (MCF-7; listed as Si 4) | Inhibition zones size, Escherichia coli K12 407 (Escherichia coli K12 407; listed as S4) | Inhibition zones size, Bacillus subtilis 3562 (Bacillus subtilis 3562; listed as S4) | Inhibition zones size, Candida albicans 74 (Candida albicans 74; listed as Si 4) | IC50 (MCF-7; listed as Si 9) | SI ± SD MCF-7 (selective index) (MCF-7; listed as Si 9)
CC(C)C[C@H](NC(=O)[C@H](CCCCN)NC(=O)/C=C/c1ccc(O)c(O)c1)C(=O)NCCC(=O)N[C@@H](CCCCN)C(=O)N[C@@H](CC(C)C)C(=O)NCCC(=O)N[C@@H](CCCCN)C(=O)N[C@@H](CCCCN)C(=O)N[C@@H](CC(C)C)C(=O)NCCC(=O)N[C@@H](CCCCN)C(=O)N[C@@H](CC(C)C)C(=O)NCCC(=O)N[C@@H](CCCCN)C(N)=O [Si12, Caf-(KLβ-AKLβ-AK)2-NH2] (Caffeoyl-KL[βAla]KL[βAla]KKL[βAla]KL[βAla]K-NH2) | 0.88 ± 0.0303 mM | good antimicrobial activity | good antimicrobial activity | did not show any antifungal activity | 160 to 162 °C |  |  |  |  |  |  |  |  |  |  |  |  | 
CC(C)C[C@H](NC(=O)[C@H](CCCCN)NC(=O)CCNC(=O)[C@H](CC(C)C)NC(=O)[C@H](CCCCN)NC(=O)[C@H](CCCCN)NC(=O)CCNC(=O)[C@H](CC(C)C)NC(=O)[C@H](CCCCN)NC(=O)CCNC(=O)[C@H](CC(C)C)NC(=O)[C@@H](N)CCCCN)C(=O)NCCC(=O)N[C@@H](CCCCN)C(N)=O [Si5, (KLβ-AKLβ-AK)2-NH2] (H-KL[βAla]KL[βAla]KKL[βAla]KL[βAla]K-NH2) | 1.27 ± 0.0707 mM | 11.83 ± 0.27 mm | 11.16 ± 0.25 mm | did not show any antifungal activity |  | 1.29 ± 0.0381 mM | 1.25 ± 0.0341 mM | 1.028 ± 0.033 | 1.45 ± 0.0157 mM | 0.890 ± 0.033 | 0 mm | complete hydrolytic stability |  |  |  |  |  | 
CC(C)C[C@H](NC(=O)[C@H](CCCCN)NC(=O)CCNC(=O)[C@H](CC(C)C)NC(=O)[C@H](CCCCN)NC(=O)CN1C(=O)c2cccc3cccc(c23)C1=O)C(=O)NCCC(=O)N[C@@H](CCCCN)C(=O)N[C@@H](CCCCN)C(=O)N[C@@H](CC(C)C)C(=O)NCCC(=O)N[C@@H](CCCCN)C(=O)N[C@@H](CC(C)C)C(=O)NCCC(=O)N[C@@H](CCCCN)C(N)=O [Si4, 1,8-NphtG-(KLβ-AKLβ-AK)2-NH2] ({Acetyl(1,8-naphthalimido)}-KL[βAla]KL[βAla]KKL[βAla]KL[βAla]K-NH2) | 1.22 ± 0.0405 mM |  |  | good antimicrobial activity |  | 1.33 ± 0.0695 mM | 0.881 ± 0.0805 mM | 1.51 ± 0.148 | 1.41 ± 0.0262 mM | 0.940 ± 0.049 |  | complete hydrolytic stability | 1.505 ± 0.148 | 16 mm | 15.83 mm | 14.33 ± 0.36 mm |  | 
CC(C)C[C@H](NC(=O)[C@H](CCCCN)NC(=O)CN1C(=O)c2cccc3cccc(c23)C1=O)C(=O)N[C@@H](C)C(=O)N[C@@H](CCCCN)C(=O)N[C@@H](CC(C)C)C(=O)N[C@@H](C)C(=O)N[C@@H](CCCCN)C(=O)N[C@@H](CCCCN)C(=O)N[C@@H](CC(C)C)C(=O)N[C@@H](C)C(=O)N[C@@H](CCCCN)C(=O)N[C@@H](CC(C)C)C(=O)N[C@@H](C)C(=O)N[C@@H](CCCCN)C(N)=O [Si9, 1,8-NphtG-(KLAKLAK)2-NH2] | 0.185 ± 0.0044 mM | 11.33 ± 0.26 mm | 13.50 ± 0.34 mm | 20.66 ± 0.45 mm |  | 0.0991 ± 0.00559 mM | 0.045 ± 0.0042 mM | 2.19 ± 0.147 | 0.179 ± 0.00292 mM | 0.553 ± 0.037 |  | complete hydrolytic stability |  |  |  |  | 0.0452 ± 0.00415 mM | 2.192 ± 0.147
